Experiments:
[1] = MRT (0 to t) in Sprague-Dawley rat at 100 mg/kg, ip up to 24 hrs post dose by LC/MS/MS analysis; type: ADME, organism-based; conditions: in vivo
[2] = test system: Platelet-derived growth factor receptor alpha (Homo sapiens), P16234 [T674I]
Description: Inhibition of TEL-fused PDGFRalpha T674I mutant (unknown origin) expressed in mouse BAF3 cells assessed as cell growth inhibition after 72 hrs by cell titer-glo assay

[3] = Volume of distribution at steady state in Sprague-Dawley rat at 2 mg/kg, iv up to 24 hrs post dose by LC/MS/MS analysis; type: ADME, organism-based; conditions: in vivo, read-out: Vdss
[4] = Tmax in Sprague-Dawley rat at 100 mg/kg, ip up to 24 hrs post dose by LC/MS/MS analysis; type: ADME, organism-based; conditions: in vivo
[5] = test system: Mast/stem cell growth factor receptor Kit (Homo sapiens), P10721 [A829P]
Chain of Mast/stem cell growth factor receptor Kit (Homo sapiens), P10721 [A829P] (P10721 whole entry A829P): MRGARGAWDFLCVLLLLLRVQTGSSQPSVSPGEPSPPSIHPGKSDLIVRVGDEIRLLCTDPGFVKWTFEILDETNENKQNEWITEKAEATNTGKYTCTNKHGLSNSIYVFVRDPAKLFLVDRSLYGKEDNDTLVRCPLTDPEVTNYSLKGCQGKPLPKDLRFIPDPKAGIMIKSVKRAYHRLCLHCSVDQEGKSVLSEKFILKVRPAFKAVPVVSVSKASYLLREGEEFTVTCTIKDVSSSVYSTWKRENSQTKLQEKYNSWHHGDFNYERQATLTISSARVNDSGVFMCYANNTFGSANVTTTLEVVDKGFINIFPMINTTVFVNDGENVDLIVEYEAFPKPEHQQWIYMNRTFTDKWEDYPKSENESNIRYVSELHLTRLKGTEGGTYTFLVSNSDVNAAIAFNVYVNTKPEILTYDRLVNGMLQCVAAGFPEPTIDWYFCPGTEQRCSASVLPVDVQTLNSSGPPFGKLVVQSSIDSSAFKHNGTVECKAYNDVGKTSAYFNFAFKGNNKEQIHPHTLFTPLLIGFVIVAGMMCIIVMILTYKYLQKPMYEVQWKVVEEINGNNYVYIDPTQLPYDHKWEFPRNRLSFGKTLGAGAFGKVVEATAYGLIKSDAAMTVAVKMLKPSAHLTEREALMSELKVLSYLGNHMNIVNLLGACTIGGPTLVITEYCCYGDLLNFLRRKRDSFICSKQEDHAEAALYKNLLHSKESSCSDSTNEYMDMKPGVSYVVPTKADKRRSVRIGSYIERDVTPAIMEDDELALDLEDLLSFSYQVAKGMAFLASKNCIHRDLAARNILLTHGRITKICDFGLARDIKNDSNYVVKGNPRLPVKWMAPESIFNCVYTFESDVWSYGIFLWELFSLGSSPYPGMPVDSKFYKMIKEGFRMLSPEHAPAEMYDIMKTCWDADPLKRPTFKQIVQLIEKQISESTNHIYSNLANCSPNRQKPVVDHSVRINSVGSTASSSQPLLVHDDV
Description: Inhibition of TEL-fused cKIT A829P mutant (unknown origin) expressed in mouse BAF3 cells assessed as cell growth inhibition after 72 hrs by cell titer-glo assay

MEG-01 = experiment: Antiproliferative activity against human MEG01 cells assessed as cell growth inhibition after 72 hrs by cell titer-glo assay; type: functional; conditions: MEG-01, 72 h
[6] = test system: Mast/stem cell growth factor receptor Kit (Homo sapiens), P10721 [C674S]
Chain of Mast/stem cell growth factor receptor Kit (Homo sapiens), P10721 [C674S] (P10721 whole entry C674S): as the sequence (P10721 whole entry A829P) above, with C674S, P829A counted along it
Description: Inhibition of TEL-fused cKIT C674S mutant (unknown origin) expressed in mouse BAF3 cells assessed as cell growth inhibition after 72 hrs by cell titer-glo assay

GIST882 = experiment: Antiproliferative activity against human GIST882 cells assessed as cell growth inhibition after 72 hrs by cell titer-glo assay; type: functional; conditions: GIST882, 72 h
[7] = Antiproliferative activity against CHO cells assessed as cell growth inhibition after 72 hrs by cell titer-glo assay; type: cell-based, Cricetulus griseus; conditions: chinese hamster
[8] = MRT (0 to infinity) in Sprague-Dawley rat at 100 mg/kg, ip up to 24 hrs post dose by LC/MS/MS analysis; type: ADME, organism-based; conditions: in vivo
[9] = test system: Mast/stem cell growth factor receptor Kit (Homo sapiens), P10721 [N822K]
Chain of Mast/stem cell growth factor receptor Kit (Homo sapiens), P10721 [N822K] (P10721 whole entry N822K): as the sequence (P10721 whole entry A829P) above, with N822K, P829A counted along it
Description: Inhibition of TEL-fused cKIT N822K mutant (unknown origin) expressed in mouse BAF3 cells assessed as cell growth inhibition after 72 hrs by cell titer-glo assay

[10] = test system: Mast/stem cell growth factor receptor Kit (Homo sapiens), P10721 [L576P]
Chain of Mast/stem cell growth factor receptor Kit (Homo sapiens), P10721 [L576P] (P10721 whole entry L576P): as the sequence (P10721 whole entry A829P) above, with L576P, P829A counted along it
Description: Inhibition of TEL-fused cKIT L576P mutant (unknown origin) expressed in mouse BAF3 cells assessed as cell growth inhibition after 72 hrs by cell titer-glo assay

BaF3 [11] = experiment: Antitumor activity against mouse BAF3 cells harboring TEL-cKIT-T670I mutant allografted in nu/nu mouse assessed as tumor growth inhibition at 100 mg/kg, ip administered daily for 11 days relative to control; type: functional; conditions: 264 h, read-out: TGI
GISTT1 [12] = experiment: Antitumor activity against human GISTT1 cells xenografted in nu/nu mouse assessed as tumor growth inhibition at 100 mg/kg, ip administered daily for 28 days relative to control; type: functional; conditions: 672 h, read-out: TGI
[13] = target: Vascular endothelial growth factor receptor 1 (Homo sapiens, UniProt P17948); experiment: Inhibition of human GST-tagged FLT1 (781 to 1338 residues) expressed in baculovirus by ELISA
[14] = MRT (0 to infinity) in Sprague-Dawley rat at 25 mg/kg, ip up to 24 hrs post dose by LC/MS/MS analysis; type: ADME, organism-based; conditions: in vivo
[15] = target: Proto-oncogene tyrosine-protein kinase receptor Ret (Homo sapiens, UniProt P07949); experiment: Inhibition of human GST-tagged RET (658 to 1114 residues) expressed in baculovirus by ELISA
Chain of Proto-oncogene tyrosine-protein kinase receptor Ret (P07949 whole entry, the tested form may be a part): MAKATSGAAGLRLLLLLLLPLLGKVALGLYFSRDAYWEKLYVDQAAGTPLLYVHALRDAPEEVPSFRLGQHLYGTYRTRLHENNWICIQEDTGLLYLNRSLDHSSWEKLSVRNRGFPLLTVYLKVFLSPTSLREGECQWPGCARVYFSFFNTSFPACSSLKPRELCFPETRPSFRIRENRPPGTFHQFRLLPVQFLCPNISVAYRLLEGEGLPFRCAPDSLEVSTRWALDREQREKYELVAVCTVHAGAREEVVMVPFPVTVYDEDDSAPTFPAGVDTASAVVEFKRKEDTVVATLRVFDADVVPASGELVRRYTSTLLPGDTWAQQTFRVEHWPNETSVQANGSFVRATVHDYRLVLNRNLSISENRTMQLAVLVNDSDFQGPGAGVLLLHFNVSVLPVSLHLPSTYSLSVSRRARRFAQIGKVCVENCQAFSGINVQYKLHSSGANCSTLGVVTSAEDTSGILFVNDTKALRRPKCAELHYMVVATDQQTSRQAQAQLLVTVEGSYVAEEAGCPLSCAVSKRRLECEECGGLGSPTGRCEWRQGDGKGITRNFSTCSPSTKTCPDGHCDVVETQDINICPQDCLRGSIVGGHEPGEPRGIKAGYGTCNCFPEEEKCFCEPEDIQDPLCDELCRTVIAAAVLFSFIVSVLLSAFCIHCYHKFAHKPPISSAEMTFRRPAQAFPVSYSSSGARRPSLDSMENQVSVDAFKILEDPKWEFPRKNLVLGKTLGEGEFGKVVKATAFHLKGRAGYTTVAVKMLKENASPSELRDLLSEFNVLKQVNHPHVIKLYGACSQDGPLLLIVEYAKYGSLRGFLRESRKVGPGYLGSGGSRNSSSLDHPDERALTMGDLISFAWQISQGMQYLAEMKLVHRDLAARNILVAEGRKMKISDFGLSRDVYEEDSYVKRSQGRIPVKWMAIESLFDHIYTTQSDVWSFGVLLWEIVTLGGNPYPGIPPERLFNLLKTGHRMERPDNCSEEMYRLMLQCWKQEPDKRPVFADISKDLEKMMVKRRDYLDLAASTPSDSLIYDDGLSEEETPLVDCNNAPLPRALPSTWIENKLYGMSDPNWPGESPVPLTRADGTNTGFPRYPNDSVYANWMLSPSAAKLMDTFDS

Mus musculus [16] = experiment: Toxicity in nu/nu mouse xenografted with human GISTT1 cells assessed as mortality at 25 to 100 mg/kg, ip administered daily for 28 days measured during compound dosing; type: organism-based; conditions: in vivo, 672 h
[17] = Tmax in Sprague-Dawley rat at 2 mg/kg, iv up to 24 hrs post dose by LC/MS/MS analysis; type: ADME, organism-based; conditions: in vivo
[18] = target: Receptor-type tyrosine-protein kinase FLT3 (Homo sapiens, UniProt P36888); experiment: Inhibition of human His-tagged FLT3 (564 to 958 residues) expressed in baculovirus by ELISA
[19] = test system: Mast/stem cell growth factor receptor Kit (Homo sapiens), P10721 [D816V]
Chain of Mast/stem cell growth factor receptor Kit (Homo sapiens), P10721 [D816V] (P10721 whole entry D816V): as the sequence (P10721 whole entry A829P) above, with D816V, P829A counted along it
Description: Inhibition of TEL-fused cKIT D816V mutant (unknown origin) expressed in mouse BAF3 cells assessed as cell growth inhibition after 72 hrs by cell titer-glo assay

[20] = Tmax in Sprague-Dawley rat at 25 mg/kg, ip up to 24 hrs post dose by LC/MS/MS analysis; type: ADME, organism-based; conditions: in vivo
[21] = AUC (0 to infinity) in Sprague-Dawley rat at 25 mg/kg, ip up to 24 hrs post dose by LC/MS/MS analysis; type: ADME, organism-based; design: dose 25 mg/kg, time infinity, route intraperitoneal; conditions: in vivo
[22] = Cmax in Sprague-Dawley rat at 2 mg/kg, iv up to 24 hrs post dose by LC/MS/MS analysis; type: ADME, organism-based; design: dose 2 mg/kg, route intravenous; conditions: in vivo
[23] = target: Vascular endothelial growth factor receptor 3 (Homo sapiens, UniProt P35916); experiment: Inhibition of human GST-tagged FLT4 (800 to 1297 residues) expressed in baculovirus by ELISA
[24] = Antiproliferative activity against mouse BAF3 cells assessed as cell growth inhibition after 72 hrs by cell titer-glo assay; type: cell-based
K562 = experiment: Antiproliferative activity against human K562 cells assessed as cell growth inhibition after 72 hrs by cell titer-glo assay; type: functional; conditions: K562, 72 h
BaF3 [25] = experiment: Antitumor activity against mouse BAF3 cells harboring TEL-cKIT-T670I mutant allografted in nu/nu mouse assessed as tumor growth inhibition at 25 mg/kg, ip administered daily for 11 days relative to control; type: functional; conditions: 264 h, read-out: TGI
[26] = AUC (0 to infinity) in Sprague-Dawley rat at 100 mg/kg, ip up to 24 hrs post dose by LC/MS/MS analysis; type: ADME, organism-based; design: dose 100 mg/kg, time infinity, route intraperitoneal; conditions: in vivo
[27] = Half life in Sprague-Dawley rat at 100 mg/kg, ip up to 24 hrs post dose by LC/MS/MS analysis; type: ADME, organism-based; conditions: in vivo
[28] = target: Platelet-derived growth factor receptor alpha (Homo sapiens, UniProt P16234)
Chain of Platelet-derived growth factor receptor alpha (P16234 whole entry): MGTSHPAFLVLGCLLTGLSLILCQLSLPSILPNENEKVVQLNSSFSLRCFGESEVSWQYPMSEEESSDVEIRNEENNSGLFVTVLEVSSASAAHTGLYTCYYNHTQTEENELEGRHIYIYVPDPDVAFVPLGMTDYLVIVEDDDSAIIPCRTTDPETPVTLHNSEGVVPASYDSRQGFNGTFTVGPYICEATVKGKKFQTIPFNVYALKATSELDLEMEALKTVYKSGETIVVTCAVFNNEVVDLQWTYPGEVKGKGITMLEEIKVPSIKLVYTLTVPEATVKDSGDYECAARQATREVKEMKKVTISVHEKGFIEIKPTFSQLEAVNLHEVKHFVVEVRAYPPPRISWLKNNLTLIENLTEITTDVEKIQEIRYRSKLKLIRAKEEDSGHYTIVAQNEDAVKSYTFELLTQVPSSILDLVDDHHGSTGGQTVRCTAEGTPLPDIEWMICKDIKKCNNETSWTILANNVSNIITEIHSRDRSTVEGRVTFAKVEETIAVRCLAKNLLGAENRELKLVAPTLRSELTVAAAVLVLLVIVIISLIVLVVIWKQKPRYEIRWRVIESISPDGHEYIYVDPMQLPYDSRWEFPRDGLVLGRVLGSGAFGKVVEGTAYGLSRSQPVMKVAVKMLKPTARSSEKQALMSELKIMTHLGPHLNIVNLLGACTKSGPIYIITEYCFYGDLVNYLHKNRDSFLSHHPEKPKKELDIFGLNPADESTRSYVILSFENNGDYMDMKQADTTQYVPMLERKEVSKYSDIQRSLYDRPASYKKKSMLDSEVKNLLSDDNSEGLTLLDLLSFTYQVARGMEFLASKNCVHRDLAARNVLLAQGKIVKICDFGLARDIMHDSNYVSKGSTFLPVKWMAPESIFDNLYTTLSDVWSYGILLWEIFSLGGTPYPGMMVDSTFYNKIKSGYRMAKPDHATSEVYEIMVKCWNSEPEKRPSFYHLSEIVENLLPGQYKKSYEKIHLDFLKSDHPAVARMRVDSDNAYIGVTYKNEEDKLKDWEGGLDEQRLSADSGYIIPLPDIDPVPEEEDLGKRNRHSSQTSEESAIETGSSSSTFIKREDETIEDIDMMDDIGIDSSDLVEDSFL
Description: Inhibition of TEL-fused PDGFRalpha (unknown origin) expressed in mouse BAF3 cells assessed as cell growth inhibition after 72 hrs by cell titer-glo assay

[29] = AUC (0 to infinity) in Sprague-Dawley rat at 2 mg/kg, iv up to 24 hrs post dose by LC/MS/MS analysis; type: ADME, organism-based; design: dose 2 mg/kg, route intravenous, time infinity; conditions: in vivo
[30] = target: Tyrosine-protein kinase ABL2 (Homo sapiens) (UniProt P42684); experiment: Inhibition of human wild type ABL2 (248 to 542 residues) expressed in bacterial expression system assessed as activity remaining at 1 uM by KINOMEscan assay relative to control
[31] = Antiproliferative activity against human GIST48B cells assessed as cell growth inhibition after 72 hrs by cell titer-glo assay; type: functional
GISTT1 [32] = experiment: Antiproliferative activity against human GISTT1 cells assessed as cell growth inhibition after 72 hrs by cell titer-glo assay; type: functional; conditions: GISTT1, 72 h
[33] = AUC (0 to t) in Sprague-Dawley rat at 2 mg/kg, iv up to 24 hrs post dose by LC/MS/MS analysis; type: ADME, organism-based; design: dose 2 mg/kg, time < 24 hr, route intravenous; conditions: in vivo
Mus musculus [34] = experiment: Toxicity in nu/nu mouse xenografted with human GISTT1 cells assessed as body weight loss at 25 to 100 mg/kg, ip administered daily for 28 days measured during compound dosing; type: organism-based; conditions: in vivo, 672 h
[35] = target: Platelet-derived growth factor receptor beta (Homo sapiens, UniProt P09619); experiment: Inhibition of human His-tagged PDGFRbeta (558 to 1106 residues) expressed in baculovirus by ELISA
Chain of Platelet-derived growth factor receptor beta (P09619 whole entry, the tested form may be a part): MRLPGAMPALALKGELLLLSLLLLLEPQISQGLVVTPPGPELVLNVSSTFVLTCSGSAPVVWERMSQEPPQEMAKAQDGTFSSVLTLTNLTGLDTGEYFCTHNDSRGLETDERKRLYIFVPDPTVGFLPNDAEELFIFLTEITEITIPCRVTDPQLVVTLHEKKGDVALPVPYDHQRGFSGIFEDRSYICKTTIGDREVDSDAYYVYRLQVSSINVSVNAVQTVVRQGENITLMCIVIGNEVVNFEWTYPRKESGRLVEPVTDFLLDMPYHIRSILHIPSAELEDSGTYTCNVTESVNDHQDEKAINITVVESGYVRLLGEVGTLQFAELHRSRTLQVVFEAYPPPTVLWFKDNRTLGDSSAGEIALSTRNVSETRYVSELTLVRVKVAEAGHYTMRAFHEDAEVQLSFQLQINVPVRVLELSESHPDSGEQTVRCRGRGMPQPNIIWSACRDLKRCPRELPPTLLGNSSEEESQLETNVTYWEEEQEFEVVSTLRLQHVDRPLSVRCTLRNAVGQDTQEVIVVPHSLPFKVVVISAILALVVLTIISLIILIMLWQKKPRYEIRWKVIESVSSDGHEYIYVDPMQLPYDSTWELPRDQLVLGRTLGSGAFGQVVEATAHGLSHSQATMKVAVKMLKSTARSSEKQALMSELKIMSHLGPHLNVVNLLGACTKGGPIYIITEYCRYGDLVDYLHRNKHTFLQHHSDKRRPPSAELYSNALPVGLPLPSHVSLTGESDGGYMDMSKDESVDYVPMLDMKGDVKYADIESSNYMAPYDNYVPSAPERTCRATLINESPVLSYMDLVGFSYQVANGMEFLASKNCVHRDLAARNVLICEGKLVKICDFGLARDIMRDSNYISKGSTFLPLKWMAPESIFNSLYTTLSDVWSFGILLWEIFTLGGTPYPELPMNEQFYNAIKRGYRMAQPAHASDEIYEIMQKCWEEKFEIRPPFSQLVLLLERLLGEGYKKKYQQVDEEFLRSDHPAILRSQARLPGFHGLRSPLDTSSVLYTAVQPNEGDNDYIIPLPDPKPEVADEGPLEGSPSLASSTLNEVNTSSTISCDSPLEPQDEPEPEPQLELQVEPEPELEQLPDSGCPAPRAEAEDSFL

[36] = target: Mast/stem cell growth factor receptor Kit (Homo sapiens, UniProt P10721)
Chain of Mast/stem cell growth factor receptor Kit (P10721 whole entry): as the sequence (P10721 whole entry A829P) above, with P829A counted along it
Description: Inhibition of cKIT (unknown origin) using FAM-labeled peptide as substrate preincubated for 10 mins followed by substrate addition in presence of ATP by mobility shift assay

Chain of Platelet-derived growth factor receptor alpha (Homo sapiens), P16234 [T674I] (P16234 whole entry T674I): as the sequence (P16234 whole entry) above, with T674I counted along it

Compound: Cc1cc(NC(=O)Nc2ccc(-c3ccnc4[nH]nc(C)c34)cc2)ccc1N1CCOCC1
- MRT last at 24 h [1]: 7.99 h
- GI50 [2]: 135 nM
- Vd [3]: 0.97 L/kg
- Tmax [4]: 4 h
- GI50 [5]: 11.6 nM
- GI50 (MEG-01): 9090 nM
- GI50 [6]: 10.5 nM
- GI50 (GIST882): < 3 nM
- GI50 at 72 h [7]: > 10000 nM
- MRT inf [8]: 14.8 h
- GI50 [9]: 11.1 nM
- GI50 [10]: 10.6 nM
- inhibition in vivo at 100 mg/kg (BaF3 [11]): 41.9%
- inhibition in vivo at 100 mg/kg (GISTT1 [12]): 81.5%
- IC50 [13]: 159 nM
- MRT inf [14]: 6.48 h
- IC50 [15]: > 1000 nM
- Activity (Mus musculus [16]): Non-Toxic
- Tmax [17]: 4.98 min
- IC50 [18]: 2 nM
- GI50 [19]: > 10000 nM
- Tmax [20]: 4 h
- AUC(0-inf) [21]: 713 ng·h/mL
- Cmax [22]: 1890 ng/mL
- IC50 [23]: 72 nM
- GI50 at 72 h [24]: 4030 nM
- GI50 (K562): > 10000 nM
- inhibition in vivo at 25 mg/kg (BaF3 [25]): 16.8%
- AUC(0-inf) [26]: 5390 ng·h/mL
- half-life [27]: 11 h
- GI50 [28]: 10.4 nM
- AUC(0-inf) [29]: 2250 ng·h/mL
- Activity [30]: > 35%
- GI50 [31]: > 10000 nM
- GI50 (GISTT1 [32]): < 3 nM
- AUC(0-t) at 24 h [33]: 2240 ng·h/mL
- Activity (Mus musculus [34]): Non-Toxic
- IC50 [35]: < 1 nM
- IC50 [36]: 2.4 nM

Reference: ChEMBL document CHEMBL4011618, “Discovery of Potent, Selective Stem Cell Factor Receptor/Platelet Derived Growth Factor Receptor Alpha (c-KIT/PDGFRα) Dual Inhibitor for the Treatment of Imatinib-Resistant Gastrointestinal Stromal Tumors (GISTs)” (J Med Chem, 2017)
